Positions of bridges follow the written chain, without caps; N, C: chain ends. Residues, ends and D or L forms follow the SMILES beside them.
Legend:
Experiment in all cases: cell-based
[1] = molecular target: hNav1.7 (Homo sapiens, UniProt Q15858); assay type: cell-based; conditions: IonWorks Quattro, use-dependent block, hNav1.7; read-out: IWQ Use Nav1.7
[2] = molecular target: hNav1.5 (Homo sapiens, UniProt Q14524); conditions: IonWorks Quattro, use-dependent block, hNav1.5; read-out: IWQ Use Nav1.5
[3] = molecular target: hNav1.3 (Homo sapiens, UniProt Q9NY46); conditions: IonWorks Quattro, use-dependent block, hNav1.3; read-out: IWQ Use Nav1.3

hNav1.7, sequence (Q15858 whole entry, looked up): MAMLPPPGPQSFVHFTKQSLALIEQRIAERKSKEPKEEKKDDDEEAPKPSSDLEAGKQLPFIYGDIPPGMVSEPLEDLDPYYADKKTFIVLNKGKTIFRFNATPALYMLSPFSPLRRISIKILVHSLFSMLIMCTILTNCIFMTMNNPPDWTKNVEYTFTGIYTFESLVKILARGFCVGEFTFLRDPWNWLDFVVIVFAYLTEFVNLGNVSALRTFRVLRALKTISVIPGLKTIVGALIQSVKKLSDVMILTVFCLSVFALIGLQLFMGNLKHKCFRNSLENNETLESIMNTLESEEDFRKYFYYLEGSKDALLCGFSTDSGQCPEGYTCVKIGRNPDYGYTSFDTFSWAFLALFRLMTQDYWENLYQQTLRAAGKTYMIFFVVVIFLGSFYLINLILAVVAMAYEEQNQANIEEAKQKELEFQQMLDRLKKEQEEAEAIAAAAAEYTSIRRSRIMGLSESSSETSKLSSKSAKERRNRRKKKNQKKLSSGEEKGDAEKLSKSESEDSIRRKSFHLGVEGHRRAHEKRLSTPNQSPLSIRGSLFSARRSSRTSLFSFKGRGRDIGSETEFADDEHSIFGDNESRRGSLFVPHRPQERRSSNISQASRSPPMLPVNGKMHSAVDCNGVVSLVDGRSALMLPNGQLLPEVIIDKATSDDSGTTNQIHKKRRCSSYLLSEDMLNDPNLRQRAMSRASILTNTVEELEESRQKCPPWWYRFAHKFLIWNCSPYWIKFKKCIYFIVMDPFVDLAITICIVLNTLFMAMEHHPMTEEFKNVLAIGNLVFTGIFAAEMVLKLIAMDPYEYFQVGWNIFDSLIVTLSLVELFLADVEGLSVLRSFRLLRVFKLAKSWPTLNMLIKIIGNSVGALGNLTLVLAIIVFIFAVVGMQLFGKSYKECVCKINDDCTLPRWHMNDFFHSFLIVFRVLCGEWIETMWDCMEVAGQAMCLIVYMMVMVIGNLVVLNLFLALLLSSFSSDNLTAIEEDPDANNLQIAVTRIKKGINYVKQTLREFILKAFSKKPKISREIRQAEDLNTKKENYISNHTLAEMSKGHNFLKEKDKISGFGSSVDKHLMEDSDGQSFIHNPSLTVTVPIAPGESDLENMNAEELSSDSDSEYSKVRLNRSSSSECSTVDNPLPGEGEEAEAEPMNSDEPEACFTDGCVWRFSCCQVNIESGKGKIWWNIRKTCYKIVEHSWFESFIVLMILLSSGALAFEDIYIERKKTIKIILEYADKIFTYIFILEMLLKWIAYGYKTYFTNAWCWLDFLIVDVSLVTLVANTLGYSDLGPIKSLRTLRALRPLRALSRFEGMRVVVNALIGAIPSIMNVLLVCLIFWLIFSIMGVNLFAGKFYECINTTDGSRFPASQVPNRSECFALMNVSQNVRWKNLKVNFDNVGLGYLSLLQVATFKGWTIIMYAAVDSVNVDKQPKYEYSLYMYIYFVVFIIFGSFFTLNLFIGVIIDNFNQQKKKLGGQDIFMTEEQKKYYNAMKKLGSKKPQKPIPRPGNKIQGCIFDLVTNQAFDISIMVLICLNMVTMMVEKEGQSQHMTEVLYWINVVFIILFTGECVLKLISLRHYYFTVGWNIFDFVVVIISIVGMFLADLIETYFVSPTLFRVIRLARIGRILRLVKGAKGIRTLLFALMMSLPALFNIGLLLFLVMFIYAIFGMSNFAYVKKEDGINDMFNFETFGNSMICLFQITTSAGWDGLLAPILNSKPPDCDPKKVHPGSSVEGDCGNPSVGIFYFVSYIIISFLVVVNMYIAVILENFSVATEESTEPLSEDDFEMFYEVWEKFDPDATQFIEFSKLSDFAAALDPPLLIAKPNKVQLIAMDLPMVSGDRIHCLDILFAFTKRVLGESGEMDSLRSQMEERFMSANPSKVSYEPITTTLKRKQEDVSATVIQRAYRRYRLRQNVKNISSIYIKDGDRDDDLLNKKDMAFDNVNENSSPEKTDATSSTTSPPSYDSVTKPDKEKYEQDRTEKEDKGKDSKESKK
hNav1.5, sequence (Q14524 whole entry, looked up): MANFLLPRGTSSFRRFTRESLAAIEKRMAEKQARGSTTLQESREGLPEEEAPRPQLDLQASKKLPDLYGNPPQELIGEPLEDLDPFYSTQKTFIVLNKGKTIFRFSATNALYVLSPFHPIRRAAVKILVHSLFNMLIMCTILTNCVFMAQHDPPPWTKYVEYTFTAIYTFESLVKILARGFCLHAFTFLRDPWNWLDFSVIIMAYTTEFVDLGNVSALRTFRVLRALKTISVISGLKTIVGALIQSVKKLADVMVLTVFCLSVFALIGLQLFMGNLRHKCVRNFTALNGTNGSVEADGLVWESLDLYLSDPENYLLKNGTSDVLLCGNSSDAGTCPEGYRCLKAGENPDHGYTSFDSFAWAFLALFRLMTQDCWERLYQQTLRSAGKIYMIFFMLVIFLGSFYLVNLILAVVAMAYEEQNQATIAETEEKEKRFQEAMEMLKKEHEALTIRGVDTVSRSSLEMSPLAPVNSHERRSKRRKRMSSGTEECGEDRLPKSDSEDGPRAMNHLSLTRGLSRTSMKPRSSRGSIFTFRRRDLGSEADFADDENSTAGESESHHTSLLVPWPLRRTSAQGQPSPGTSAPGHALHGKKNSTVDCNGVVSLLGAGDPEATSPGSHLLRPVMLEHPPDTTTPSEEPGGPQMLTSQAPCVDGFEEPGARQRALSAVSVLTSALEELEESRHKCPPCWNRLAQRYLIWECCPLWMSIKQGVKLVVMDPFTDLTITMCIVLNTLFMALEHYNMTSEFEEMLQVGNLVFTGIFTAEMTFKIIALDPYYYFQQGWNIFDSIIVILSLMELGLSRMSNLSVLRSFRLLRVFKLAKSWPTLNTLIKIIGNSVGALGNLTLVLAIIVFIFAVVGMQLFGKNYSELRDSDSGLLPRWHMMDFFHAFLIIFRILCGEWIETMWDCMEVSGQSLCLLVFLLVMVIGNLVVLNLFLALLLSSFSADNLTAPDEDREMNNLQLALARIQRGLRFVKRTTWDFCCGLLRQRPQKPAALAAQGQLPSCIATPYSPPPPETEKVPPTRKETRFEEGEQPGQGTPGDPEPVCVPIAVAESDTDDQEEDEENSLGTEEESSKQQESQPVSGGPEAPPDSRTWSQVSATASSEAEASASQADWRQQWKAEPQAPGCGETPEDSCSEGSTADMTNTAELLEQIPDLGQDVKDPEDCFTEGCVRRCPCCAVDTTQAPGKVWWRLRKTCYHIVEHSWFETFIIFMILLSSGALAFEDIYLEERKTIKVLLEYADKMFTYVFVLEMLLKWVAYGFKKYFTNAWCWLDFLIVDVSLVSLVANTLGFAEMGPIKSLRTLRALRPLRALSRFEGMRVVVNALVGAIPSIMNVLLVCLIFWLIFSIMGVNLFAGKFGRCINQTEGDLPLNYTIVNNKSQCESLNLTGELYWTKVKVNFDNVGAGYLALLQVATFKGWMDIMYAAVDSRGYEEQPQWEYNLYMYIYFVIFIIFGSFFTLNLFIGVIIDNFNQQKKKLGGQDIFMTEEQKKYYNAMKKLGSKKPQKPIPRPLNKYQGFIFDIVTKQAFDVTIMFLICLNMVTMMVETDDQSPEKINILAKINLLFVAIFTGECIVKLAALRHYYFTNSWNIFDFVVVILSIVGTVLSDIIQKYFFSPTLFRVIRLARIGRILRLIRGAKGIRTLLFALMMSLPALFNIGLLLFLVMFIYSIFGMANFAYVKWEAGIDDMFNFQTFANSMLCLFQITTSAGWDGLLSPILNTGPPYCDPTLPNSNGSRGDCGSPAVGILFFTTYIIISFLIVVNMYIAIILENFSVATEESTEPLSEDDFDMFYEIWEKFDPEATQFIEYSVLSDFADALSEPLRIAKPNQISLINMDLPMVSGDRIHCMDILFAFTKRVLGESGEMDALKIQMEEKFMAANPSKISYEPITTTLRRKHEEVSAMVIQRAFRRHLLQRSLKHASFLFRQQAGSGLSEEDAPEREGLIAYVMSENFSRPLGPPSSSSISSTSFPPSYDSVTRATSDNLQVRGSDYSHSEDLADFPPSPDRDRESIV

SMILES: CC[C@H](C)[C@@H]1NC(=O)[C@@H]2CSSC[C@@H]3NC(=O)[C@H](C(C)C)NC(=O)[C@H](CC(C)C)NC(=O)[C@H](CC(N)=O)NC(=O)[C@@H]4CCCN4C(=O)[C@H](CCCNC(=N)N)NC(=O)[C@H](CSSC[C@H](NC(=O)[C@@H](N)CC(=O)O)C(=O)N[C@@H](CC(C)C)C(=O)NCC(=O)N[C@@H](C)C(=O)N[C@@H](CCSC)C(=O)N[C@@H](CCCNC(=N)N)C(=O)N[C@@H](CCCCN)C(=O)N2)NC(=O)[C@H](CSSC[C@@H](C(=O)N[C@@H](CCCCN)C(=O)N[C@@H](Cc2ccc(O)cc2)C(=O)N[C@H](C(=O)N[C@@H](CCC(=O)O)C(N)=O)C(C)C)NC(=O)[C@H](Cc2c[nH]c4ccccc24)NC(=O)[C@H](CCCCN)NC(=O)[C@H](Cc2c[nH]cn2)NC(=O)[C@H]([C@@H](C)O)NC(=O)[C@H](CCCNC(=N)N)NC(=O)[C@H](CO)NC3=O)NC(=O)[C@H](CCCCN)NC(=O)[C@H](CC(=O)O)NC(=O)[C@H](CC(N)=O)NC(=O)[C@H](CC(=O)O)NC(=O)[C@@H]2CCCN2C1=O [compound 430] (H-DCLGAMRKCIPDNDKCCRPNLVCSRTHKWCKYVE-NH2; disulfide 2-17, 9-23, 16-30)
- IC50 [1]: > 5 µM
- IC50 [2]: > 5 µM
- IC50 [3]: > 5 µM

SMILES: CC[C@H](C)[C@@H]1NC(=O)[C@@H]2CSSC[C@@H]3NC(=O)[C@H](C(C)C)NC(=O)[C@H](CC(C)C)NC(=O)[C@H](CC(N)=O)NC(=O)[C@@H]4CCCN4C(=O)[C@H](CCCNC(=N)N)NC(=O)[C@H](CSSC[C@H](NC(=O)[C@@H](N)CC(=O)O)C(=O)N[C@@H](CC(C)C)C(=O)NCC(=O)N[C@@H](C)C(=O)N[C@@H](CCSC)C(=O)N[C@@H](CCCNC(=N)N)C(=O)N[C@@H](CCCCN)C(=O)N2)NC(=O)[C@H](CSSC[C@@H](C(=O)N[C@@H](CCCCN)C(=O)N[C@@H](Cc2ccc(O)cc2)C(=O)N[C@H](C(=O)N[C@@H](C)C(N)=O)C(C)C)NC(=O)[C@H](Cc2c[nH]c4ccccc24)NC(=O)[C@H](CCCCN)NC(=O)[C@H](Cc2c[nH]cn2)NC(=O)[C@H]([C@@H](C)O)NC(=O)[C@H](CCCNC(=N)N)NC(=O)[C@H](CO)NC3=O)NC(=O)[C@H](CCCCN)NC(=O)[C@H](CC(=O)O)NC(=O)[C@H](CC(N)=O)NC(=O)[C@H](CC(=O)O)NC(=O)[C@@H]2CCCN2C1=O [compound 431] (H-DCLGAMRKCIPDNDKCCRPNLVCSRTHKWCKYVA-NH2; disulfide 2-17, 9-23, 16-30)
- IC50 [1]: > 5 µM
- IC50 [2]: > 5 µM
- IC50 [3]: > 5 µM

SMILES: CC[C@H](C)[C@@H]1NC(=O)[C@@H]2CSSC[C@@H]3NC(=O)[C@H](C(C)C)NC(=O)[C@H](CC(C)C)NC(=O)[C@H](CC(N)=O)NC(=O)[C@@H]4CCCN4C(=O)[C@H](CCCNC(=N)N)NC(=O)[C@H](CSSC[C@H](NC(=O)[C@@H](N)CC(=O)O)C(=O)N[C@@H](CC(C)C)C(=O)NCC(=O)N[C@@H](C)C(=O)N[C@@H](CCSC)C(=O)N[C@@H](CCCNC(=N)N)C(=O)N[C@@H](CCCCN)C(=O)N2)NC(=O)[C@H](CSSC[C@@H](C(=O)N[C@@H](CCCCN)C(=O)N[C@@H](C)C(=O)N[C@H](C(=O)N[C@@H](Cc2ccccc2)C(N)=O)C(C)C)NC(=O)[C@H](Cc2c[nH]c4ccccc24)NC(=O)[C@H](CCCCN)NC(=O)[C@H](Cc2c[nH]cn2)NC(=O)[C@H]([C@@H](C)O)NC(=O)[C@H](CCCNC(=N)N)NC(=O)[C@H](CO)NC3=O)NC(=O)[C@H](CCCCN)NC(=O)[C@H](CC(=O)O)NC(=O)[C@H](CC(N)=O)NC(=O)[C@H](CC(=O)O)NC(=O)[C@@H]2CCCN2C1=O [compound 432] (H-DCLGAMRKCIPDNDKCCRPNLVCSRTHKWCKAVF-NH2; disulfide 2-17, 9-23, 16-30)
- IC50 [1]: > 5 µM
- IC50 [2]: > 5 µM
- IC50 [3]: > 5 µM

SMILES: CC[C@H](C)[C@@H]1NC(=O)[C@@H]2CSSC[C@@H]3NC(=O)[C@H](C(C)C)NC(=O)[C@H](CC(C)C)NC(=O)[C@H](CC(N)=O)NC(=O)[C@@H]4CCCN4C(=O)[C@H](CCCNC(=N)N)NC(=O)[C@H](CSSC[C@H](NC(=O)[C@@H](N)CC(=O)O)C(=O)N[C@@H](CC(C)C)C(=O)NCC(=O)N[C@@H](C)C(=O)N[C@@H](CCSC)C(=O)N[C@@H](CCCNC(=N)N)C(=O)N[C@@H](CCCCN)C(=O)N2)NC(=O)[C@H](CSSC[C@@H](C(=O)N[C@@H](C)C(=O)N[C@@H](Cc2ccc(O)cc2)C(=O)N[C@H](C(=O)N[C@@H](Cc2ccccc2)C(N)=O)C(C)C)NC(=O)[C@H](Cc2c[nH]c4ccccc24)NC(=O)[C@H](CCCCN)NC(=O)[C@H](Cc2c[nH]cn2)NC(=O)[C@H]([C@@H](C)O)NC(=O)[C@H](CCCNC(=N)N)NC(=O)[C@H](CO)NC3=O)NC(=O)[C@H](CCCCN)NC(=O)[C@H](CC(=O)O)NC(=O)[C@H](CC(N)=O)NC(=O)[C@H](CC(=O)O)NC(=O)[C@@H]2CCCN2C1=O [compound 433] (H-DCLGAMRKCIPDNDKCCRPNLVCSRTHKWCAYVF-NH2; disulfide 2-17, 9-23, 16-30)
- IC50 [1]: > 5 µM
- IC50 [2]: > 5 µM
- IC50 [3]: > 5 µM

SMILES: CC[C@H](C)[C@@H]1NC(=O)[C@@H]2CSSC[C@@H]3NC(=O)[C@H](C(C)C)NC(=O)[C@H](CC(C)C)NC(=O)[C@H](CC(N)=O)NC(=O)[C@@H]4CCCN4C(=O)[C@H](CCCNC(=N)N)NC(=O)[C@H](CSSC[C@H](NC(=O)[C@@H](N)CC(=O)O)C(=O)N[C@@H](CC(C)C)C(=O)NCC(=O)N[C@@H](C)C(=O)N[C@@H](CCSC)C(=O)N[C@@H](CCCNC(=N)N)C(=O)N[C@@H](CCCCN)C(=O)N2)NC(=O)[C@H](CSSC[C@@H](C(=O)N[C@@H](CCCCN)C(=O)N[C@@H](Cc2ccc(O)cc2)C(=O)N[C@H](C(=O)N[C@@H](Cc2ccccc2)C(N)=O)C(C)C)NC(=O)[C@H](C)NC(=O)[C@H](CCCCN)NC(=O)[C@H](Cc2c[nH]cn2)NC(=O)[C@H]([C@@H](C)O)NC(=O)[C@H](CCCNC(=N)N)NC(=O)[C@H](CO)NC3=O)NC(=O)[C@H](CCCCN)NC(=O)[C@H](CC(=O)O)NC(=O)[C@H](CC(N)=O)NC(=O)[C@H](CC(=O)O)NC(=O)[C@@H]2CCCN2C1=O [compound 434] (H-DCLGAMRKCIPDNDKCCRPNLVCSRTHKACKYVF-NH2; disulfide 2-17, 9-23, 16-30)
- IC50 [1]: > 5 µM
- IC50 [2]: > 5 µM
- IC50 [3]: > 5 µM

SMILES: CC[C@H](C)[C@@H]1NC(=O)[C@@H]2CSSC[C@@H]3NC(=O)[C@H](C(C)C)NC(=O)[C@H](CC(C)C)NC(=O)[C@H](CC(N)=O)NC(=O)[C@@H]4CCCN4C(=O)[C@H](CCCNC(=N)N)NC(=O)[C@H](CSSC[C@H](NC(=O)[C@@H](N)CC(=O)O)C(=O)N[C@@H](CC(C)C)C(=O)NCC(=O)N[C@@H](C)C(=O)N[C@@H](CCSC)C(=O)N[C@@H](CCCNC(=N)N)C(=O)N[C@@H](CCCCN)C(=O)N2)NC(=O)[C@H](CSSC[C@@H](C(=O)N[C@@H](CCCCN)C(=O)N[C@@H](Cc2ccc(O)cc2)C(=O)N[C@H](C(=O)N[C@@H](Cc2ccccc2)C(N)=O)C(C)C)NC(=O)[C@H](Cc2c[nH]c4ccccc24)NC(=O)[C@H](CCC(=O)O)NC(=O)[C@H](Cc2c[nH]cn2)NC(=O)[C@H]([C@@H](C)O)NC(=O)[C@H](CCCNC(=N)N)NC(=O)[C@H](CO)NC3=O)NC(=O)[C@H](CCCCN)NC(=O)[C@H](CC(=O)O)NC(=O)[C@H](CC(N)=O)NC(=O)[C@H](CC(=O)O)NC(=O)[C@@H]2CCCN2C1=O [compound 435]
- IC50 [1]: > 5 µM
- IC50 [2]: 3.66 µM
- IC50 [3]: > 5 µM

SMILES: CC[C@H](C)[C@@H]1NC(=O)[C@@H]2CSSC[C@@H]3NC(=O)[C@H](C(C)C)NC(=O)[C@H](CC(C)C)NC(=O)[C@H](CC(N)=O)NC(=O)[C@@H]4CCCN4C(=O)[C@H](CCCNC(=N)N)NC(=O)[C@H](CSSC[C@H](NC(=O)[C@@H](N)CC(=O)O)C(=O)N[C@@H](CC(C)C)C(=O)NCC(=O)N[C@@H](C)C(=O)N[C@@H](CCSC)C(=O)N[C@@H](CCC(=O)O)C(=O)N[C@@H](CCCCN)C(=O)N2)NC(=O)[C@H](CSSC[C@@H](C(=O)N[C@@H](CCCCN)C(=O)N[C@@H](Cc2ccc(O)cc2)C(=O)N[C@H](C(=O)N[C@@H](Cc2ccccc2)C(N)=O)C(C)C)NC(=O)[C@H](Cc2c[nH]c4ccccc24)NC(=O)[C@H](CCCCN)NC(=O)[C@H](Cc2c[nH]cn2)NC(=O)[C@H]([C@@H](C)O)NC(=O)[C@H](CCCNC(=N)N)NC(=O)[C@H](CO)NC3=O)NC(=O)[C@H](CCCCN)NC(=O)[C@H](CC(=O)O)NC(=O)[C@H](CC(N)=O)NC(=O)[C@H](CC(=O)O)NC(=O)[C@@H]2CCCN2C1=O [compound 436] (H-DCLGAMEKCIPDNDKCCRPNLVCSRTHKWCKYVF-NH2; disulfide 2-17, 9-23, 16-30)
- IC50 [1]: > 5 µM
- IC50 [2]: > 5 µM
- IC50 [3]: > 5 µM

SMILES: CC[C@H](C)[C@@H]1NC(=O)[C@@H]2CSSC[C@@H]3NC(=O)[C@H](C(C)C)NC(=O)[C@H](CC(C)C)NC(=O)[C@H](CC(N)=O)NC(=O)[C@@H]4CCCN4C(=O)[C@H](CCCNC(=N)N)NC(=O)[C@H](CSSC[C@H](NC(=O)[C@@H](N)CC(=O)O)C(=O)N[C@@H](CC(C)C)C(=O)NCC(=O)N[C@@H](C)C(=O)N[C@@H](CCSC)C(=O)N[C@@H](CCCNC(=N)N)C(=O)N[C@@H](CCCCN)C(=O)N2)NC(=O)[C@H](CSSC[C@@H](C(=O)N[C@@H](CCCCN)C(=O)N[C@@H](Cc2ccc(O)cc2)C(=O)N[C@H](C(=O)N[C@@H](Cc2ccccc2)C(N)=O)C(C)C)NC(=O)[C@H](CCC(=O)O)NC(=O)[C@H](CCCCN)NC(=O)[C@H](Cc2c[nH]cn2)NC(=O)[C@H]([C@@H](C)O)NC(=O)[C@H](CCCNC(=N)N)NC(=O)[C@H](CO)NC3=O)NC(=O)[C@H](CCCCN)NC(=O)[C@H](CC(=O)O)NC(=O)[C@H](CC(N)=O)NC(=O)[C@H](CC(=O)O)NC(=O)[C@@H]2CCCN2C1=O [compound 437] (H-DCLGAMRKCIPDNDKCCRPNLVCSRTHKECKYVF-NH2; disulfide 2-17, 9-23, 16-30)
- IC50 [1]: 11.9 µM
- IC50 [2]: 9.26 µM
- IC50 [3]: 6.09 µM
